Experimental findings from patent US7094909B2, “HIV protease inhibitors, compositions containing the same, their pharmaceutical uses and materials for their synthesis” (priority 2001, dated 2006) are described below.

Broadly, the Ki is a dissociation constant, usually derived from enzyme kinetics or from competition with a known ligand. The low end stands for tighter binding, the high end for weaker binding.

The experiment has as its target T1, HIV-1 protease (Q7S mutant form) (Human immunodeficiency virus type 1 group M subtype B, UniProt P04585, Q495S).
T1 construct: made in house
The experiment can be described thus: HIV-1 Protease RET assay. Format: biochemical. The method, then: Ki's for the inhibitors of HIV-1 protease were determined using a resonance energy transfer (RET) assay. […] This enzyme is first partially purified as inclusion bodies from cell lysate. It is then solublized in 8M urea and passed through a Q-Sepharose column (Pharmacia) for further purification. To refold this protein, samples containing Q7S is dialyzed into 50 mM sodium phosphate pH 7.0, 50 mM NaCl, 10 mM DTT, and 10% glycerol.
The commercially available peptide substrate (Molecular Probes Cat. # H-2930) RE(EDANS)SQNYPIVQK(DABCYL)R is used to assess activity and Ki's. This peptide is cleaved quantitatively by HIV-1 Pr at the Tyr-Pro bond. The EDANS fluorophore absorbs at 340 nm and emits at 490 nm. The reaction is carried out in a 96 well plate in a total volume of 100 µL and is run for 12 minutes at 37 C under steady-state conditions with 5 µM substrate and 2 nM active dimer enzyme concentration. The literature value Km for this substrate and enzyme is 103+/−8 µM (See Matayoshi, et al., “Novel Fluorogenic Substrates for Assaying Retroviral Proteases by Resonance Energy Transfer,” Science 247, 954 (1990)). The buffer for this reaction is 0.1M sodium acetate pH 4.8, 1M NaCl, 1 mM EDTA, 5 mM dithiothreitol, 10% dimethyl sulfoxide and 1 mg/ml bovine serum albumin. Inhibition curves are fit using the Morrison tight binding equation.

Setting [1] is: Ave. Ki (nM), RET assay, Q7S enzyme, Morrison tight binding fit.

On to `Cc1ccccc1CNC(=O)[C@H]1N(C(=O)C(O)C(Cc2ccccc2)NC(=O)NCc2ccc(F)cc2F)CSC1(C)C` (stereo in doubt) [Example B71, 3-{3-[3-(2,4-Difluoro-benzyl)-ureido]-2-hydroxy-4-phenyl-butyryl}-5,5-dimethyl-thiazolidine-4-carboxylic acid 2-methyl-benzylamide], for which, under setting [1], the Ki amounted to 6.4 nM.
Same read-out and setting: the result for `Cc1ccccc1CNC(=O)[C@H]1N(C(=O)[C@@H](O)[C@H](Cc2ccccc2)NC(=O)Nc2cccc(F)c2)CSC1(C)C` [Example B55, 3-{(2S,3S)-3-[3-(3-Fluoro-phenyl)-ureido]-2-hydroxy-4-phenyl-butyryl}-5,5-dimethyl-thiazolidine-4-carboxylic acid 2-methyl-benzylamide] reads 679 nM.
On to `Cc1ccccc1CNC(=O)[C@H]1N(C(=O)[C@@H](O)[C@H](Cc2ccccc2)NC(=O)CNC(=O)OC(C)(C)C)CSC1(C)C`, for which the Ki (Ki, unit inferred) was found to be 88 nM.
`Cc1ccccc1CNC(=O)[C@H]1N(C(=O)C(O)C(Cc2ccccc2)NS(=O)(=O)c2ccc(C#N)cc2)CSC1(C)C` (stereo partly drawn) [Example B58, 3-[(2S,3S)-3-(4-Cyano-benzenesulfonylamino)-2-hydroxy-4-phenyl-butyryl]-5,5-dimethyl-thiazolidine-carboxylic acid 2-methyl-benzylamide] had a Ki under setting [1] of 240 nM.
Consider `Cc1ccccc1CNC(=O)[C@H]1N(C(=O)[C@@H](O)[C@H](Cc2ccccc2)NC(=O)COc2cccnc2Cl)CSC1(C)C`, for which, for the setting “Ki, unit inferred”, the affinity corresponds to a Ki of 7.6 nM.
The same measure, in the same setting: the value for `Cc1ccccc1CNC(=O)[C@H]1N(C(=O)[C@@H](O)[C@H](Cc2ccccc2)NC(=O)C2CCCNC2)CSC1(C)C` (some centres unmarked) was 11.5 nM; that for `C/C=C(/C)C(=O)N[C@@H](Cc1ccccc1)[C@H](O)C(=O)N1CSC(C)(C)[C@H]1C(=O)NCc1ccccc1C` was 7.6 nM.
Same read-out and setting: the value for `Cc1c(O)cccc1C(=O)N[C@@H](Cc1ccccc1)[C@H](O)C(=O)C1CCC2(CCCC2)[C@@H]1C(=O)NC1=CCCCC1` (some centres unmarked) was 53 nM.
Turning to `COc1ccccc1CNC(=O)NC(Cc1ccccc1)C(O)C(=O)N1CSC(C)(C)[C@H]1C(=O)NCc1ccccc1C` (stereo in doubt) [Example B70, 3-{2-Hydroxy-3-[3-(2-methoxy-benzyl)-ureido]-4-phenyl-butyryl}-5,5-dimethyl-thiazolidine-4-carboxylic acid 2-methyl-benzylamide], the affinity under setting [1], expressed as Ki, was 21 nM.
As to `Cc1c(O)cccc1C(=O)N[C@@H](Cc1ccccc1)[C@H](O)C(=O)N1CSC(C)(C)C1C(=O)NCCc1ccccn1` (some centres unmarked), affinity (Ki, unit inferred) was put at a Ki of 134 nM.
Consider `C#CC(C)OC(=O)N[C@@H](Cc1ccccc1)[C@H](O)C(=O)N1CSC(C)(C)[C@H]1C(=O)NCc1ccccc1C` (some centres unmarked), for which affinity (Ki, unit inferred) was put at a Ki of 5.4 nM.
As to `Cc1ccccc1CNC(=O)[C@@H]1CC(F)(F)CN1C(=O)[C@@H](O)[C@H](Cc1ccccc1)NC(=O)c1c(C)noc1C` [Example C43, 3,5-Dimethyl-isoxazole-4-carboxylic acid {1-benzyl-3-[4,4-difluoro-2-(2-methyl-benzylcarbamoyl)-pyrrolidin-1-yl]-2-hydroxy-3-oxo-propyl}-amide], the Ki under setting [1] was 21 nM.
Molecule `Cc1ccccc1CNC(=O)[C@H]1N(C(=O)[C@@H](O)[C@H](Cc2ccccc2)NC(=O)COc2cccc3ncccc23)CSC1(C)C` had an inhibitory constant (Ki) (Ki, unit inferred) of 14.2 nM.
For the setting “Ki, unit inferred”, `Cc1c(O)cccc1C(=O)N[C@@H](Cc1ccccc1)[C@H](O)C(=O)N1CSC2(CCC2)[C@@H]1C(=O)N[C@@H]1C=CCCC1` returned a Ki of 12.9 nM.
